Experimental findings from publication PMC6437697 (Journal of Medicinal Chemistry, 2019) are described below.

What all share (assay): KINOMEscan
Assay type in all cases: binding
Details in all cases: read-out: % control activity remaining

For one test, the target named is T1, ZAP70 (Homo sapiens, UniProt P43403).
T1 construct: purchased Eurofins DiscoverX KINOMEscan
T1 sequence (P43403 1-619): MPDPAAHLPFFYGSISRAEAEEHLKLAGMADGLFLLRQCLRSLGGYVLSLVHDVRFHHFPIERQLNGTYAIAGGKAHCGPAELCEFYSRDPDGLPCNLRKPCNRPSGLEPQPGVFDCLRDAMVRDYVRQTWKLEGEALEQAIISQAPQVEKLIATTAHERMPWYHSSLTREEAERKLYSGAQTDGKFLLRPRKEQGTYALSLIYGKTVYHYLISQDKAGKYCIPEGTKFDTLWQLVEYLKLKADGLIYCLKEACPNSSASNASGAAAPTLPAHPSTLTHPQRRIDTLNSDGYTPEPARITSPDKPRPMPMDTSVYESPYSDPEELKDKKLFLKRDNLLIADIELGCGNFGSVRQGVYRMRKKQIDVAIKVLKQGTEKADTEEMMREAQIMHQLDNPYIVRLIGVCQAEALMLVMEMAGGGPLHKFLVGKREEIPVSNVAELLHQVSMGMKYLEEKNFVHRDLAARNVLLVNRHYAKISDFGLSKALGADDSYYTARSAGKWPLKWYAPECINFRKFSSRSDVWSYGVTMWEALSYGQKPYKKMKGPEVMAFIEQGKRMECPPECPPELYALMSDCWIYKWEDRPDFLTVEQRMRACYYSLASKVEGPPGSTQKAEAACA

The target in another test is T2, S6K1 (Homo sapiens, UniProt P23443).
T2 construct: purchased Eurofins DiscoverX KINOMEscan

Another test concerns the target T3, ANKK1 (Homo sapiens, UniProt Q8NFD2).
T3 construct: purchased Eurofins DiscoverX KINOMEscan
T3 sequence (Q8NFD2 1-765): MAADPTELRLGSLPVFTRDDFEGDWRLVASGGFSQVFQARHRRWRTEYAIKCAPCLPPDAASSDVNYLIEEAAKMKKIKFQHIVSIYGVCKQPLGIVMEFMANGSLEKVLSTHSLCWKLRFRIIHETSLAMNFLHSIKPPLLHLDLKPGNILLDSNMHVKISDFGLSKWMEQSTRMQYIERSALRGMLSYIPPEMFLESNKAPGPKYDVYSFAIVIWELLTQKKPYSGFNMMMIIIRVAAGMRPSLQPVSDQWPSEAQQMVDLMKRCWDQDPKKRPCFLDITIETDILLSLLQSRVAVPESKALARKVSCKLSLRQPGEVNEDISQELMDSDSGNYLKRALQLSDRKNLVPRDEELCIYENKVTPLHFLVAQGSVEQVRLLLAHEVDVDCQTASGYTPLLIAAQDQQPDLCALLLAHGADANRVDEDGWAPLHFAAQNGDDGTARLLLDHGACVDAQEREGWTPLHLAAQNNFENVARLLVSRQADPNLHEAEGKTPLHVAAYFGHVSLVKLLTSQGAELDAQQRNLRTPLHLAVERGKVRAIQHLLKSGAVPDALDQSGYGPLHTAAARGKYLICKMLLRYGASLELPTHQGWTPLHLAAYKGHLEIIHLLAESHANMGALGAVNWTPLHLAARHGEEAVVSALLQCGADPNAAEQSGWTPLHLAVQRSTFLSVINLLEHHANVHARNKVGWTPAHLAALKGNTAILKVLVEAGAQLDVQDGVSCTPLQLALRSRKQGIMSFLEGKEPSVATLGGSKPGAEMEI

A further test has as its target T4, KIT(V559D) (Homo sapiens, UniProt P10721, V559D).
T4 construct: purchased Eurofins DiscoverX KINOMEscan

For a further test, the target named is T5, MST4 (Homo sapiens, UniProt Q9P289).
T5 construct: purchased Eurofins DiscoverX KINOMEscan

The target of test [1] is T6, RSK4(Kin.Dom.1-N-terminal) (Homo sapiens, UniProt Q9UK32).
T6 construct: RSK4(Kin.Dom.1-N-terminal); purchased Eurofins DiscoverX KINOMEscan

A further test concerns the target T7, CLK3 (Homo sapiens, UniProt P49761).
T7 construct: purchased Eurofins DiscoverX KINOMEscan

The target in another test is T8, PRKCE (Homo sapiens, UniProt Q02156).
T8 construct: purchased Eurofins DiscoverX KINOMEscan
T8 sequence (Q02156 1-737): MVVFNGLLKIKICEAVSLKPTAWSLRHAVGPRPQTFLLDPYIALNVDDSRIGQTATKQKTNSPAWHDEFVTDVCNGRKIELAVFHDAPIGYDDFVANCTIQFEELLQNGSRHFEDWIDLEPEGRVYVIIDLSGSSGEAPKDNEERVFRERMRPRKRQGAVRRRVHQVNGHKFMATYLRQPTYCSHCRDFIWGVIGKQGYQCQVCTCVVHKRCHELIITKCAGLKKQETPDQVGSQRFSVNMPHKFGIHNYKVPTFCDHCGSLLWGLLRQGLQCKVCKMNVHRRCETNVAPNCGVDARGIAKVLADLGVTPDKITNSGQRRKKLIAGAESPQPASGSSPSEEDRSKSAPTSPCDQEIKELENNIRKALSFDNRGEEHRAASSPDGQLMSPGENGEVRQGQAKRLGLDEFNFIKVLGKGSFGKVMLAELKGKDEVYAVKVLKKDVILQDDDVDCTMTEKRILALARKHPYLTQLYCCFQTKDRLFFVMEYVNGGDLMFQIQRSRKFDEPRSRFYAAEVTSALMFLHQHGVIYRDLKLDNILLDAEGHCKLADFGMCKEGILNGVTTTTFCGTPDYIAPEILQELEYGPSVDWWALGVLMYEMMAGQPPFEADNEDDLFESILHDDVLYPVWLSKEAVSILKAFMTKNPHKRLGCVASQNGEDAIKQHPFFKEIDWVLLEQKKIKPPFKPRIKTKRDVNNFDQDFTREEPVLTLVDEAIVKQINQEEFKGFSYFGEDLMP

T4 sequence (P10721 26-976 V559D): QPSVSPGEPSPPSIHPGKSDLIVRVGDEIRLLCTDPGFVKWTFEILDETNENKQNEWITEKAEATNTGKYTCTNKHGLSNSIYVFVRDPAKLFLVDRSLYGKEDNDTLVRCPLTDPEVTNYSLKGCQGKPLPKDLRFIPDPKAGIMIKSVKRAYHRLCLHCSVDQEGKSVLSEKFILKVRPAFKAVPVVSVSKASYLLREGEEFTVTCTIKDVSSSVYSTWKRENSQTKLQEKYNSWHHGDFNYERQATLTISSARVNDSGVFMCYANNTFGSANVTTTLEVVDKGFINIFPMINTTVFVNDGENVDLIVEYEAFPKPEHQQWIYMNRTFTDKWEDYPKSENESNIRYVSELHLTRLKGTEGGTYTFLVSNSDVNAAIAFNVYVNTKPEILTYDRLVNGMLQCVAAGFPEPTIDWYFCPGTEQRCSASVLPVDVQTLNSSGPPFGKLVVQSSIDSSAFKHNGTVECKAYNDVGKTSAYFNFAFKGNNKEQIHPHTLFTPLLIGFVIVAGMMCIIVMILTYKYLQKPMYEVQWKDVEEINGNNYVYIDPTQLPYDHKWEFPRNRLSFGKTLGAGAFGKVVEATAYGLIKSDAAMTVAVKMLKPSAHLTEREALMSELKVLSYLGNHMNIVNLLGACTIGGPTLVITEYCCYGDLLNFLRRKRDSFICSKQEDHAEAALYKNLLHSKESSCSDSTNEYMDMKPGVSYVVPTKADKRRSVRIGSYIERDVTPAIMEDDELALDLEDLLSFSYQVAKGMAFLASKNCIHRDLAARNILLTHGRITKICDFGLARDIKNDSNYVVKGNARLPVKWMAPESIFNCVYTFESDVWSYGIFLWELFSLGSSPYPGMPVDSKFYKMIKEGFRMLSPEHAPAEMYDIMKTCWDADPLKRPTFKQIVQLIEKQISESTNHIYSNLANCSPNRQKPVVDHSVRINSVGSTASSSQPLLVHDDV
T6 sequence (Q9UK32 73-330 limits assumed): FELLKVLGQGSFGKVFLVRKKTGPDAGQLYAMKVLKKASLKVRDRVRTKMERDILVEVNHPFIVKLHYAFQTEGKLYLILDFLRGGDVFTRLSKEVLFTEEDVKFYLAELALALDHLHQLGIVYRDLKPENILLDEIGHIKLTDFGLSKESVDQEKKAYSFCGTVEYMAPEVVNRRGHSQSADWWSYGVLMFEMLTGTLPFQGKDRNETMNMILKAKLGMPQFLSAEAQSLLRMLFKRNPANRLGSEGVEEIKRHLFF
T5 sequence (Q9P289 whole entry): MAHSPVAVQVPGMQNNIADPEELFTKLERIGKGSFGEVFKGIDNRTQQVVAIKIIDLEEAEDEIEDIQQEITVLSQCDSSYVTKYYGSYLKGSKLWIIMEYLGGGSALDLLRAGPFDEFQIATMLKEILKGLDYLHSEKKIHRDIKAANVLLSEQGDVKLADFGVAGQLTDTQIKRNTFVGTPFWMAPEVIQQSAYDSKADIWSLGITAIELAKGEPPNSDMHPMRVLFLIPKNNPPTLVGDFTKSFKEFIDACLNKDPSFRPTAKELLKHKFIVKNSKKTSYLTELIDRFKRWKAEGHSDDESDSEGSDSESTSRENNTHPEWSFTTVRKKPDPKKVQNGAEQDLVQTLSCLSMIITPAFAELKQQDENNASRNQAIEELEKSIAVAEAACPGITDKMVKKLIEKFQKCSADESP
T7 sequence (P49761 whole entry): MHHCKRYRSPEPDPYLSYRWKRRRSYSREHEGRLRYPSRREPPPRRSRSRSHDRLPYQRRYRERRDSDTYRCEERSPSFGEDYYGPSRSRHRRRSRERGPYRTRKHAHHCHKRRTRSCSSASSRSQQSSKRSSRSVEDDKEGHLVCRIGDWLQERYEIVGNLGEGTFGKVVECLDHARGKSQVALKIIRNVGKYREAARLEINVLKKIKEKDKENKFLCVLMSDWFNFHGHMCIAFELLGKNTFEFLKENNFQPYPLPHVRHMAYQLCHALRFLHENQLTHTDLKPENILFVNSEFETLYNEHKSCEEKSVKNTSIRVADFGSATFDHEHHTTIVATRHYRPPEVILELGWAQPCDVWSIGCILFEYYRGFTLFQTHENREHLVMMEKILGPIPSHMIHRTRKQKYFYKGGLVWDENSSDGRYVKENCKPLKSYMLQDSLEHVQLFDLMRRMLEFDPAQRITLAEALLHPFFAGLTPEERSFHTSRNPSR
T2 sequence (P23443 whole entry): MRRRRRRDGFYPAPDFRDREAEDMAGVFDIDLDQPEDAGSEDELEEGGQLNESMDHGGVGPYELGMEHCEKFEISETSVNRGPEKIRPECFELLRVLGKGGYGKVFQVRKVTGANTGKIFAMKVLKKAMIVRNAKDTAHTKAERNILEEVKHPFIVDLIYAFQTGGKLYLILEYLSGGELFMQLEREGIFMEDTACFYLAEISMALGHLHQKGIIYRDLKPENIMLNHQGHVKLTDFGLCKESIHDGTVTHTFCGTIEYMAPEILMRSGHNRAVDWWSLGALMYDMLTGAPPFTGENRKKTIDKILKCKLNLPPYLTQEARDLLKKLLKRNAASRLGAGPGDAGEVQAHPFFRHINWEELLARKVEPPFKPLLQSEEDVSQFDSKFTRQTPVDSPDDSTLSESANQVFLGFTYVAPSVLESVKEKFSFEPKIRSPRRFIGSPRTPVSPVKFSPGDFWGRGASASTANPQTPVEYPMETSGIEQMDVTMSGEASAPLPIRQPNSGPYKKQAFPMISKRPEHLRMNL

Regarding `Clc1cc(NCC2CC2)c2ncc(-c3ccc4[nH]ncc4c3)n2n1` [compound 2, 6-Chloro-N-(cyclopropylmethyl)-3-(1H-indazol-5-yl)imidazo[1,2-b]pyridazin-8-amine], the remaining binding at 1 µM at ZAP70 turned out to be 84%; on S6K1, 90%; at ANKK1, 75%; on KIT(V559D), 0.45%; at MST4 it was 88%; in test [1], 27%. Besides, the results for the remaining binding at 1 µM on CLK3 and at PRKCE were 70% and 100%, respectively.
On to `O=C(CN1CCOCC1)N[C@H]1CC[C@H](Nc2cc(Cl)nn3c(-c4ccc5[nH]ncc5c4)cnc23)CC1` [compound 26], for which the remaining binding at 1 µM on ZAP70 came out at 100%; at S6K1, 88%; on ANKK1 it was 48%; at KIT(V559D) it was 0.05%; on MST4, 84%; in test [1], 13%. Moreover, the remaining binding at 1 µM at CLK3 amounted to 52%; on PRKCE, 96%.
For `CN1CCC(CNc2cc(Cl)nn3c(-c4cc5nc(Nc6ccccc6)[nH]c5cc4F)cnc23)CC1` [compound 31, 6-Chloro-3-(6-fluoro-2-(phenylamino)-1H-benzo[d]imidazol-5-yl)-N-((1-methylpiperidin-4-yl)methyl)imidazo[1,2-b]pyridazin-8-amine], the remaining binding at 1 µM on ZAP70 amounted to 83%; at S6K1 it was 95%; on ANKK1, 100%; on KIT(V559D), 67%; on MST4, 100%; in test [1], 97%. In addition, the remaining binding at 1 µM at CLK3 stood at 100%; on PRKCE, 86%.
